In ChEMBL document CHEMBL1158950, “New Sesquiterpenes from Xanthium catharticum” (J Nat Prod, 1991):
The source made the active and inactive calls. The calls are words filed in the database; no cut-off is given here.

Experiments:
Staphylococcus aureus = test: Antimicrobial activity against Staphylococcus aureus; format: functional, organism-based
Bacillus subtilis = test: Antimicrobial activity against Bacillus subtilis; format: functional, organism-based
[1] = test system: Agrobacterium tumefaciens; test: Antitumor activity against Agrobacterium tumefaciens-induced crown gall tumor by potato disk assay; format: functional
Artemia salina = test: Toxicity in Artemia salina; format: organism-based; details: in vivo

CC(=O)/C=C/C1=CC[C@@H]2[C@H](C)C(=O)O[C@@H]2C[C@@H]1C
Activity (Staphylococcus aureus): inactive | Activity (Bacillus subtilis): inactive

C=C1C(=O)O[C@@H]2CC(=C)[C@@H]3CC=C(C)[C@@H]3C[C@H]12 [GUAIANOLIDE ZINIOLIDE]
inhibition (INH) [1]: 49% | LC50 (Artemia salina): 14 ppm
